# Patent publication US9878986B2, “Compounds for selective histone deacetylase inhibitors, and pharmaceutical composition comprising the same” (CHONG KUN DANG PHARMACEUTICAL CORP., priority 2013, dated 2018)
# How the values were obtained:
# HDAC 6 = target: T1, HDAC 6 (Homo sapiens, UniProt Q9UBN7); assay: Test of HDAC activities, HDAC6 (fluorimetric); assay type: biochemical; set-up: purchased Calbiochem 382180; settings: samples at 0.1, 1, 10, 100, 1000 nM; 37° C. 60 minutes; fluorescence Ex 390, Em 460; read-out: HDAC inhibitory activities, HDAC6
# T1 sequence (Q9UBN7 1-1215): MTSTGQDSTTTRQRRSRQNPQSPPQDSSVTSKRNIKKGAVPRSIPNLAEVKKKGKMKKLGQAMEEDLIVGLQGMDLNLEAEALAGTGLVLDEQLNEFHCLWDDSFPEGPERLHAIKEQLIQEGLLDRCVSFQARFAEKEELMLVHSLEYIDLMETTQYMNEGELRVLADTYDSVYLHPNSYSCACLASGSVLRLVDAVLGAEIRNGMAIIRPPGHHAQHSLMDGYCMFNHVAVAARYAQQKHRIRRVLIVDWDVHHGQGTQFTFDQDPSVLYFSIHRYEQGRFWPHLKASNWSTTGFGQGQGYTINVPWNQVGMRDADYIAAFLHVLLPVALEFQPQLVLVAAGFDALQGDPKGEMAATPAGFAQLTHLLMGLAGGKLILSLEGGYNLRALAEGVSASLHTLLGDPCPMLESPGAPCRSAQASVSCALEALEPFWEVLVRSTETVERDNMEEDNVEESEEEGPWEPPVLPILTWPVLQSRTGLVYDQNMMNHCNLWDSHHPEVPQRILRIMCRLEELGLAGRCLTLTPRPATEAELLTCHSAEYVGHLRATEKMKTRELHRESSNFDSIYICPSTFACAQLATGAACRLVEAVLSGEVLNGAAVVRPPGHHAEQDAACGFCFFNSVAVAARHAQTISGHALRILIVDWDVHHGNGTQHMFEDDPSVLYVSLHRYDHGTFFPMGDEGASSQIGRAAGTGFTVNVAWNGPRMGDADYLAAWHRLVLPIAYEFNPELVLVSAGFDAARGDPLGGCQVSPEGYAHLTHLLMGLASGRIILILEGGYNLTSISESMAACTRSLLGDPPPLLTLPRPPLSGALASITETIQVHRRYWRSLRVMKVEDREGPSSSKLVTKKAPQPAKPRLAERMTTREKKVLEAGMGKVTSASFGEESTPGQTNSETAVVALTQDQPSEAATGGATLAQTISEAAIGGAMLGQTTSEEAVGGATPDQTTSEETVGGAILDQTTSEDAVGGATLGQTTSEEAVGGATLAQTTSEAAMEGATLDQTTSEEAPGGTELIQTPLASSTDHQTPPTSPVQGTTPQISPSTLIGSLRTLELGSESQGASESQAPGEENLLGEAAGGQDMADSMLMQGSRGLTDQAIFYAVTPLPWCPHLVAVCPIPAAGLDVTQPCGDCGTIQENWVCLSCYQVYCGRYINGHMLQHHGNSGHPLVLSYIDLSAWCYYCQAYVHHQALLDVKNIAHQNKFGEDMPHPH
# Method in brief: (§1)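 HDAC1 tested at 100, 1000 and 10000 nM; recombinant human HDAC6 at 0.1, 1, 10, 100 and 1000 nM. Reaction 60 min at 37° C, then developer for 30 min at 37° C; fluorescence read at Ex 390/Em 460.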
# [1] = system: adjuvant-induced arthritis models; assay: Adjuvant-induced arthritis models; assay type: in vivo, Lewis rat; settings: for clinical score: intraperitoneally, vehicle group 4.2
# Protocol: Complete Freund's Adjuvant (Chondrex) containing 10 mg/mL Heat killed mycobacteria toxin was sufficiently mixed, and then 100 μL was taken and intradermally injected into the upper part of the tail of Lewis rat to induce arthritis. After 10 days, the length of the ankle circumference of rats was measured, and then the rats were grouped and used in the experiment. Each compound was intraperitoneally injected twice a day. The clinical score, the length of the ankle circumference, and the weight were measured twice a week after the administration of the compounds. The clinical scores were assigned from 0 to 4 based on the thesis of Woods, etc. (J. Immunology, 1214-1222, 2001), and the total clinical score was determined by evaluating the feet of each rat and summing up the scores (normal: 0, most severe edema: 16). The length of the ankle circumference was calculated based on the formula of 2×3.14(√(a^2+b^2/2)) after measuring top-bottom sides (a) of the foot and lateral sides (b) of the foot. The final value was determined by averaging the calculated values of each foot.
# HDAC1 = HDAC1 (Homo sapiens, UniProt Q13547); assay: Test of HDAC activities, HDAC1 Fluorimetric Drug Discovery Assay Kit; assay type: biochemical; set-up: purchased Enzolifesciences BML-AK511; settings: samples at 100, 1000, 10000 nM; 37° C. 60 minutes; fluorescence Ex 390, Em 460; read-out: HDAC inhibitory activities, HDAC1
# Sequence of HDAC1 (Q13547 whole entry): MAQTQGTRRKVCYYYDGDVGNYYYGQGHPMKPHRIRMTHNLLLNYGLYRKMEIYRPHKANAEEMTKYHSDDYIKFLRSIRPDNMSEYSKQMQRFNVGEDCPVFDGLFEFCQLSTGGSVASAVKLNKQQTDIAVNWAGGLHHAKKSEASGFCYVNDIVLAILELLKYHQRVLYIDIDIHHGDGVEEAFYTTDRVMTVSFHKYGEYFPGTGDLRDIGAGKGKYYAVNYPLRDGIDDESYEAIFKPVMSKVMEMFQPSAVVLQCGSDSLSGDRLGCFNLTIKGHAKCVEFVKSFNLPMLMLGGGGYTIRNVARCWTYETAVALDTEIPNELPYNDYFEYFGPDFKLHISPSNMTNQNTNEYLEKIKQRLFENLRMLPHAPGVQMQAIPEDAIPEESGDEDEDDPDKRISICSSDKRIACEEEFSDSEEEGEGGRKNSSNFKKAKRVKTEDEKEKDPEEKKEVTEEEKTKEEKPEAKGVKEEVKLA
# Method in brief: as §1
# [2] = system: collagen-induced arthritis models; assay: Collagen-induced arthritis models; assay type: in vivo, DBA/1J mice; settings: 30 mg/kg twice a day
# Protocol: An emulsion was prepared by mixing bovine collagen type II (Chondrex) and complete Freund's adjuvant (Chondrex) at a ratio of 1:1 until the […] using a 1 ml pipette. Each 100 μL of emulsion was intradermally injected into the tail of DBA/1J mice for the first immunization. After 21 days, an emulsion was prepared by mixing bovine collagen type II and incomplete Freund's adjuvant (Chondrex) at a ratio of 1:1 by the same method as above. Each of 100 μL of emulsion was intradermally injected into the upper part of the tail of DBA/1J mice for the second boosting immunization. After the second boosting immunization, the mice were grouped according to body weight, the test drug was administered to each group, and the effects of the test drugs were measured by measuring the clinical score and the body weight. The clinical scores were assigned from 0 to 4, and the total clinical score was determined by evaluating the feet of each mouse and summing up the scores (normal: 0, most severe edema: 16). That is, the efficacy in the arthritis models was evaluated with the severity of edema of the joint, and a higher score was assigned to more severe edema.
# colitis models = assay: Colitis models (dextran sulfate sodium); assay type: in vivo, C57BL/6J mice; settings: intraperitoneally twice a day after 8 days from supply of DSS; disease-induced models lost to 17.5 to 18 g
# Protocol: 3.0% dextran sulfate sodium (DSS: MP biomedicals) was dissolved in deionized water and supplied to 9-week-old C57BL/6J mice for 5 to 7 days and then water was normally supplied to the mice to induce colitis in animal models. The experimental animals were classified into a solvent control group and each group treated with Compound 254 and Compound 255 as test materials based on the body weight of the experimental animals. The test material was intraperitoneally injected twice a day after 8 days from the supply of DSS. The evaluation of the efficacy in colitis models was made by determining the degree to which the weight, lost due to the disease, was recovered to normal level, and the results are shown in FIG. 6.
IC50 (HDAC 6),IC50 (HDAC1),SMILES,further results
1 nM,2720 nM,"CCN1CCN(C(=O)N(Cc2ccc(C(=O)NO)cc2)c2cccc(C(F)(F)F)c2)CC1 [Compound 461, 4-ethyl-N-(4-(hydroxycarbamoyl)benzyl)-N-(3-(trifluoromethyl)phenyl)piperazine-1-carboxamide]","clinical score ([1]; 25 mg/kg twice a day): 1.9; clinical score ([1]; 50 mg/kg twice a day): 1.3; improvement compared with MTX used as the control group ([1]; 25 and 50 mg/kg twice a day): higher than that of MTX; arthritis symptoms improved by ([1]; 25 and 50 mg/kg twice a day, versus vehicle group): 50 to 70%"
2 nM,173 nM,"Cn1ncc2ccc(-c3cccc(N(Cc4ccc(C(=O)NO)cc4)C(=O)N4CCOCC4)c3)cc21 [Compound 254, N-(4-(hydroxycarbamoyl)benzyl)-N-(3-(1-methyl-1H-indazol-6-yl)phenyl)morpholine-4-carboxamide]","arthritis symptoms improved by ([2]; versus vehicle group): more than 40%; clinical score ([2]; score 0 to 16, vehicle group 11.6): 6.4; weight recovered to (colitis models): 18.5 to 19.0 g"
5 nM,1320 nM,"COc1ccccc1N1CCN(C(=O)N(Cc2ccc(C(=O)NO)cc2)c2ccc(C)cc2F)CC1 [Compound 454, N-(2-fluoro-4-methylphenyl)-N-(4-(hydroxycarbamoyl)benzyl)-4-(2-methoxyphenyl)piperazine-1-carboxamide]",
21 nM,503 nM,"O=C(NO)c1ccc(CN(C(=O)N2CCN(c3ccncc3)CC2)c2ccc(C(F)(F)F)cc2)cc1 [Compound 544, N-(4-(hydroxycarbamoyl)benzyl)-4-(pyridin-4-yl)-N-(4-(trifluoromethyl)phenyl)piperazine-1-carboxamide]",
1 nM,692 nM,"CC(=O)N1CCN(C(=O)N(Cc2ccc(C(=O)NO)cc2)c2cccc(C(F)(F)F)c2)CC1 [Compound 494, 4-acetyl-N-(4-(hydroxycarbamoyl)benzyl)-N-(3-(trifluoromethyl)phenyl)piperazine-1-carboxamide]",
3 nM,408 nM,"CN1CCN(C(=O)N(Cc2ccc(C(=O)NO)cc2)c2cccc(-c3ccc4c(c3)OCO4)c2)CC1 [Compound 466, N-(3-(benzo[d][1,3]dioxol-5-yl)phenyl)-N-(4-(hydroxycarbamoyl)benzyl)-4-methylpiperazine-1-carboxamide]",
14 nM,1930 nM,"O=C(NO)c1ccc(CN(C(=O)N2CCCCC2)c2cccc(-c3ccc4c(c3)OCO4)c2)cc1 [Compound 462, N-(3-(benzo[d][1,3]dioxol-5-yl)phenyl)-N-(4-(hydroxycarbamoyl)benzyl)piperidine-1-carboxamide]",
2 nM,190 nM,"O=C(NO)c1ccc(CN(C(=O)N2CCOCC2)c2cccc(-c3ccc4c(c3)OCO4)c2)cc1 [Compound 418, N-(3-(benzo[d][1,3]dioxol-5-yl)phenyl)-N-(4-(hydroxycarbamoyl)benzyl)morpholine-4-carboxamide]",
